Data: patent US20180346446A1, “IRE1 SMALL MOLECULE INHIBITORS” (QUENTIS THERAPEUTICS, INC., priority 2017, published 2018)

How the values were obtained:
[1] = target: T1, IRE1a (Homo sapiens, UniProt O75460); test: IRE1a Endoribonuclease Nanoluciferase Assay (XBP1 luciferase reporter in 293T cells); type: cell-based; conditions: 293T cells transfected with XBP1 luciferase reporter, ER stressors +/- inhibitors
Procedure: Compounds disclosed herein were assessed for disruption of IRE1 signaling using a IRE1a Endoribonuclease Nanoluciferase Assay. Briefly, 2.5×10^6 293T cells were seeded in a 10 cm^2 tissue culture plate. About 24 hours later, the cells were transfected with Effectene. In a 15 mL Tube, the following was added: 2 ug XBP1 luciferase reporter plasmid (PGK-Luc2-P2A-XBP1u-Nanoluciferase-PEST); 300 ul EC buffer; and 16 ul Enhancer, followed by incubation at room temp for 5 minutes. Next, 60 ul Effectene (Qiagen 301427) was added, followed by incubation at room temperature for 10 minutes. 2.6 mL cDMEM media was added. Old media was aspirated from the cells, followed by addition of 7 mL fresh media. Full transfection mixture was added dropwise to cells. Cells were incubated for 6 hours, followed by trypsinization, centrifugation and resuspension in 11 mL media. 100 uL of cells were plated per a well in a 96 well plate. A day later, ER stressors of choice +/− inhibitors were added. To harvest, media was aspirated from cells completely, then 50 uL 1× passive lysis buffer (Promega: E1941) was added per well and put on shaker (300 rpm) for 30 minutes at room temperature. Cells were centrifuged, and 15 uL sample per well was added to a new, opaque white 384 well plate (Corning 3570). 15 uL OneGlo (nanoluciferase kit, Promega N1630) was added. Plates were spun down, placed on shaker (300 rpm) for 10 minutes. Plates were read on luminometer, 1000 ms integration time per well. 15 uL Stop and Glo (nanoluciferase kit) was added. Plates were spun down, placed on shaker (300 rpm) for 10 minutes. Plates were read on luminometer, 1000 ms second integration time per well. Recordings are provided below in Table 4.

[2] = target: T1, IRE1a; test: In vitro FRET assay (XBP1 RNA probe cleavage by IRE1a); type: biochemical; set-up: purchased SignalChem; conditions: 2 nM IRE1a protein
Procedure: In vitro FRET assay was performed to evaluate the ability of select compounds to inhibit IRE1, the results of which are summarized in Table 3. To perform the in vitro FRET assay, 1× complete assay buffer (CAB; […], 50 mM sodium citrate pH 7.15, ImM magnesium acetate, 0.02% tween 20) was used to dilute SignalChem IRE1a protein to a final concentration of 2 nM. Selected compounds were serially diluted with DMSO in a non-binding black 384-well plate for a total of 15 ul in each well. 2 ul of the serially diluted compound or DMSO control were then added to new wells containing 98 ul of 1×CAB, for a total volume of 100 ul, 10 ul of which were then transferred to wells of a new plate. 5 ul of the diluted IRE1a was then added to each well. 5 ul of a […] XBP1 RNA probe was then added to each well. Fluorescence was then read over 30 minutes in kinetic mode (485/515 nm).
Two RNA probes were used, XBP1 wildtype (SEQ ID NO: 2) which is able to be spliced by active IRE1a or XBP1 mutant (SEQ ID NO: 3) which is unable to be spliced. Each probe contained a 5′ 6-FAM modification and a 3′ IOWA Black FQ modification. […]

T1 sequence (O75460 19-977): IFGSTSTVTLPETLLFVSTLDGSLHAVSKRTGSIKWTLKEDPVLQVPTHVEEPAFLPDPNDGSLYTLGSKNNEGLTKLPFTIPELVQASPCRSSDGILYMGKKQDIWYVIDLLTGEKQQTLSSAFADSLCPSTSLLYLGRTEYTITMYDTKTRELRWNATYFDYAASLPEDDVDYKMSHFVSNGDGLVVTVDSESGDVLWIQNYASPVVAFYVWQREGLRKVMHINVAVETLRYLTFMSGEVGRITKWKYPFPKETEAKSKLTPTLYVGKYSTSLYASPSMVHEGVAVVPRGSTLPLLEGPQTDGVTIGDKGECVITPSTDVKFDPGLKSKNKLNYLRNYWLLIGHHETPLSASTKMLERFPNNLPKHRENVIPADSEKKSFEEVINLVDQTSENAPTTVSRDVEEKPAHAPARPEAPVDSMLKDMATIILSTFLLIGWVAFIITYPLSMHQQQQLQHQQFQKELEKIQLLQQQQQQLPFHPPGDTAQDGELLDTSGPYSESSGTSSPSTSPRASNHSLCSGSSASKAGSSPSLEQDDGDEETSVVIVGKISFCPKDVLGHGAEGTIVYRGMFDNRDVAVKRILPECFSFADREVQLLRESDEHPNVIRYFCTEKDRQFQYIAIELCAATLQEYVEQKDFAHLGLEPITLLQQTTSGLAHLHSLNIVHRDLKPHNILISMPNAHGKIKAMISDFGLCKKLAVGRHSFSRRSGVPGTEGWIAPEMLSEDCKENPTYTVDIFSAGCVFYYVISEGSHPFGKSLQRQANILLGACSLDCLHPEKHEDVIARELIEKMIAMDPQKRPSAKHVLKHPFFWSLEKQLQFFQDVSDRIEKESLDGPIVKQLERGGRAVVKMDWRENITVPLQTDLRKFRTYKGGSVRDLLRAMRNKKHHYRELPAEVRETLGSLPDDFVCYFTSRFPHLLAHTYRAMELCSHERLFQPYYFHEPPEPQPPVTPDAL

SMILES	EC50 [1] [nM]	IC50 [2] [nM]
N[C@H]1CC[C@H](Nc2ncc3cc(-c4ccc(NS(=O)(=O)c5ccccc5Cl)cc4)ccc3n2)CC1 [26; Formic Acid]	≤ 5	≤ 5
CCc1cc(-c2cc(NS(=O)(=O)c3ccccc3Cl)no2)cc2cnc(N[C@H]3CC[C@H](N)CC3)nc12 [44; Formic Acid]	≤ 5	≤ 5
CCCc1cc(-c2cc(NS(=O)(=O)c3ccccc3Cl)nn2C)cc2cnc(N[C@H]3CC[C@H](N)CC3)nc12 [47; Formic Acid]	5 to 50	≤ 5
N[C@H]1CC[C@H](Nc2ncc3cc(-c4ccc(NS(=O)(=O)c5ccccc5Cl)cc4F)ccc3n2)CC1 [48; Formic Acid]	5 to 50	≤ 5
N[C@H]1CC[C@H](Nc2ncc3cc(-c4ncc(NS(=O)(=O)c5ccccc5Cl)cc4F)ccc3n2)CC1 [51; Formic Acid]	50 to 100	≤ 5
N[C@H]1CC[C@H](Nc2ncc3cc(-c4cnc(NS(=O)(=O)c5ccccc5Cl)c(F)c4)ccc3n2)CC1 [54; Formic Acid]	5 to 50	≤ 5
N[C@H]1CC[C@H](Nc2ncc3cc(-c4ccc(NS(=O)(=O)c5ccccc5Cl)c(F)c4F)ccc3n2)CC1 [56; Formic Acid]	≤ 5	≤ 5
N[C@H]1CC[C@H](Nc2cc3ccc(-c4ccc(NS(=O)(=O)c5ccccc5Cl)c(F)c4)cc3cn2)CC1 [57; Formic Acid]	≤ 5	≤ 5
CCc1cc(-c2ccc(NS(=O)(=O)c3ccccc3Cl)c(F)c2)cc2cnc(N[C@H]3CC[C@H](NC(=O)[C@@H](N)C(C)C)CC3)nc12 [58; Formic Acid]	≤ 5	5 to 50
CCc1cc(-c2ccc(NS(=O)(=O)c3ccccc3Cl)c(F)c2)cc2cnc(N[C@H]3CC[C@H](NC(C)=O)CC3)nc12 [59; Formic Acid]	50 to 100	5 to 50
CCc1cc(-c2ccc(NS(=O)(=O)c3ccccc3Cl)c(F)c2)cc2cnc(N[C@H]3CC[C@H](NC)CC3)nc12 [60; Formic Acid]	≤ 5	≤ 5
N[C@H]1CC[C@H](Nc2ncc3cc(-c4c(F)cc(NS(=O)(=O)c5ccccc5Cl)cc4F)ccc3n2)CC1 [62; Formic Acid]	5 to 50	≤ 5
CCc1cc(-c2cc(OC)c(NS(=O)(=O)c3ccccc3Cl)nn2)cc2cnc(N[C@H]3CC[C@H](N)CC3)nc12 [66; Formic Acid]	50 to 100	≤ 5
CCc1cc(-c2ccc(NS(=O)(=O)c3ccccc3C(F)(F)F)cc2C)cc2cnc(N[C@H]3CC[C@H](N)CC3)nc12 [Compound 7, N-(4-(2-(((1r,4r)-4-aminocyclohexyl)amino)-8-ethylquinazolin-6-yl)-3-methylphenyl)-2-(trifluoromethyl)benzenesulfonamide]	–	5 to 50
CCc1cc(-c2ccc(NS(=O)(=O)c3ccccc3OC(F)(F)F)cc2C)cc2cnc(N[C@H]3CC[C@H](N)CC3)nc12 [Compound 8, N-(4-(2-(((1r,4r)-4-aminocyclohexyl)amino)-8-ethylquinazolin-6-yl)-3-methylphenyl)-2-(trifluoromethoxy)benzenesulfonamide]	–	5 to 50
CCc1cc(-c2ccc(NS(=O)(=O)c3cc(Cl)ccc3Cl)cc2C)cc2cnc(N[C@H]3CC[C@H](N)CC3)nc12 [Compound 9, N-(4-(2-(((1r,4r)-4-aminocyclohexyl)amino)-8-ethylquinazolin-6-yl)-3-methylphenyl)-2,5-dichlorobenzenesulfonamide]	–	≤ 5
CCc1cc(-c2ccc(NS(=O)(=O)c3ccccc3F)cc2C)cc2cnc(N[C@H]3CC[C@H](N)CC3)nc12 [Compound 10, N-(4-(2-(((1r,4r)-4-aminocyclohexyl)amino)-8-ethylquinazolin-6-yl)-3-methylphenyl)-2-fluorobenzenesulfonamide]	–	≤ 5
CCc1cc(-c2ccc(NS(=O)(=O)c3ccc(Cl)cc3)cc2C)cc2cnc(N[C@H]3CC[C@H](N)CC3)nc12 [Compound 12]	–	> 100
CCc1cc(-c2ccc(NS(=O)(=O)c3ccccc3OC)cc2C)cc2cnc(N[C@H]3CC[C@H](N)CC3)nc12 [Compound 13]	–	> 100
